Measurements from patent US20040081973A1, “Cloning and characterization of a novel BK channel isoform highly expressed in glioma cells” (priority 2002, published 2004).

Key:
Kca = conditions: EGF and PDGF stimulation (Huang and Rane, 1994); cited from earlier work
Kca current = conditions: CEFs transformed with Rous sarcoma virus (Repp et al., 1993); cited from earlier work
gBK = molecular target: T1, gBK (Homo sapiens, UniProt Q12791); experiment: Tetrandrine inhibition of gBK currents in outside-out patches; assay type: cell-based; conditions: 3 uM tetrandrine, voltage steps to +120 mV
T1 construct: Outside-out patches were isolated from STTG-1 cells; endogenous in cells
Method: Outside-out patches were isolated from STTG-1 cells and the voltage dependence of gBK currents were isolated with different [Ca^2+]i. Currents were integrated over the period of a voltage step and the average conductance was calculated from these areas (Ransom and Sontheimer, 2002). For each patch, 5-20 families of current traces over a range of voltages were obtained and the average conductance values at each membrane potential were determined. The normalized conductance was plotted as a function of membrane potential (activation curves) and fit to the Boltzman equation to obtain half-maximal voltages, V0.5. A total of 45 outside-out patches and their corresponding activation curves with [Ca^2+]i of 0 (10 mM EGTA added), 1.5×10−7 M and 2.1×10−6 M were determined. […] (FIGS. 11A and 11B). For comparison, the same set of experiments was performed on the hbr5 BK channel (Ransom and Sontheimer, 2002). V0.5 for hbr5 BK channel at [Ca^2+]i of 0 (10 mM EGTA added), 1.5×10−7 M and 2.1×10−6 M were +118 mV, +52 mV and −23 mV (FIGS. 12A and 12B).
If gBK channels are associated with β-subunits, then they should be sensitive to tetrandrine, a plant alkaloid. 3 uM tetrandrine has been reported to inhibit β-subunit-containing channels over 50%.

hbr5 = molecular target: T2, hbr5 (Homo sapiens, UniProt Q12791); experiment: Tetrandrine inhibition of hbr5 currents in outside-out patches from HEK cells transfected with hbr5; assay type: cell-based; conditions: HEK293, 3 uM tetrandrine, voltage steps to +120 mV
T2 construct: expressed in transfected cells; host or cells: HEK cells

[1] = molecular target: glioma BK (gBK) channel, novel splice variant of hSlo alpha-subunit (human) (UniProt Q12791); experiment: cell-based or functional assay
Sequence of glioma BK (gBK) channel, novel splice variant of hSlo alpha-subunit (human) (Q12791 other isoform, or with tags, fused parts or gaps mutant): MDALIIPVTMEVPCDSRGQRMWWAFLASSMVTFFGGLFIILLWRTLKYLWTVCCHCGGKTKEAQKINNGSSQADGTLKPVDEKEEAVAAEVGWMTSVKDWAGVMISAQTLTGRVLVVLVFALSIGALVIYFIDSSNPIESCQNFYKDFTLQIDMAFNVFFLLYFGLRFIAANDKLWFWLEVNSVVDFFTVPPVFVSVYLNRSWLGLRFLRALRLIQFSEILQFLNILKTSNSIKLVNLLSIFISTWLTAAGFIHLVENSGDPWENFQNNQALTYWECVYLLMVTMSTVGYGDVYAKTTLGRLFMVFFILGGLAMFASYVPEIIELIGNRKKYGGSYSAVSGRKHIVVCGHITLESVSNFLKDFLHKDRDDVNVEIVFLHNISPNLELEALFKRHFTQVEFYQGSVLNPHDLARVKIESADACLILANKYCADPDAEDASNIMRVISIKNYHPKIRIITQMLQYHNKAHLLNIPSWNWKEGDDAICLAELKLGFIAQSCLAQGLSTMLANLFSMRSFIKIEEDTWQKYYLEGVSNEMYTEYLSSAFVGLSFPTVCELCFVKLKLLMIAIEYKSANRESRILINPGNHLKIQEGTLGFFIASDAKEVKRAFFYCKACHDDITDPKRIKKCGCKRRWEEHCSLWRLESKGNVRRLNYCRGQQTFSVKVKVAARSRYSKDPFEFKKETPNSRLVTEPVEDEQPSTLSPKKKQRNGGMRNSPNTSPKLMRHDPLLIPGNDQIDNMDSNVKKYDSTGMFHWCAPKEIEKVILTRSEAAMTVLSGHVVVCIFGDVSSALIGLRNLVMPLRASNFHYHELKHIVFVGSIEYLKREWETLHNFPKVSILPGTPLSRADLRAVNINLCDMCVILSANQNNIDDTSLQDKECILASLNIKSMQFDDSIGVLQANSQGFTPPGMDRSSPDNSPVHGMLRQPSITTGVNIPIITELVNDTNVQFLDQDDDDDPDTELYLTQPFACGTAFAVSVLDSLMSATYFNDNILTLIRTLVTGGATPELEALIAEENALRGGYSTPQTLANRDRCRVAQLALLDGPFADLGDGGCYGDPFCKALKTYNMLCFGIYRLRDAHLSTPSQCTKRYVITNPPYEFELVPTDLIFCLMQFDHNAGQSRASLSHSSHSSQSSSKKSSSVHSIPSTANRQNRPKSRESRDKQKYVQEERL

T2 sequence (Q12791 1-1207 isoform Q12791-4): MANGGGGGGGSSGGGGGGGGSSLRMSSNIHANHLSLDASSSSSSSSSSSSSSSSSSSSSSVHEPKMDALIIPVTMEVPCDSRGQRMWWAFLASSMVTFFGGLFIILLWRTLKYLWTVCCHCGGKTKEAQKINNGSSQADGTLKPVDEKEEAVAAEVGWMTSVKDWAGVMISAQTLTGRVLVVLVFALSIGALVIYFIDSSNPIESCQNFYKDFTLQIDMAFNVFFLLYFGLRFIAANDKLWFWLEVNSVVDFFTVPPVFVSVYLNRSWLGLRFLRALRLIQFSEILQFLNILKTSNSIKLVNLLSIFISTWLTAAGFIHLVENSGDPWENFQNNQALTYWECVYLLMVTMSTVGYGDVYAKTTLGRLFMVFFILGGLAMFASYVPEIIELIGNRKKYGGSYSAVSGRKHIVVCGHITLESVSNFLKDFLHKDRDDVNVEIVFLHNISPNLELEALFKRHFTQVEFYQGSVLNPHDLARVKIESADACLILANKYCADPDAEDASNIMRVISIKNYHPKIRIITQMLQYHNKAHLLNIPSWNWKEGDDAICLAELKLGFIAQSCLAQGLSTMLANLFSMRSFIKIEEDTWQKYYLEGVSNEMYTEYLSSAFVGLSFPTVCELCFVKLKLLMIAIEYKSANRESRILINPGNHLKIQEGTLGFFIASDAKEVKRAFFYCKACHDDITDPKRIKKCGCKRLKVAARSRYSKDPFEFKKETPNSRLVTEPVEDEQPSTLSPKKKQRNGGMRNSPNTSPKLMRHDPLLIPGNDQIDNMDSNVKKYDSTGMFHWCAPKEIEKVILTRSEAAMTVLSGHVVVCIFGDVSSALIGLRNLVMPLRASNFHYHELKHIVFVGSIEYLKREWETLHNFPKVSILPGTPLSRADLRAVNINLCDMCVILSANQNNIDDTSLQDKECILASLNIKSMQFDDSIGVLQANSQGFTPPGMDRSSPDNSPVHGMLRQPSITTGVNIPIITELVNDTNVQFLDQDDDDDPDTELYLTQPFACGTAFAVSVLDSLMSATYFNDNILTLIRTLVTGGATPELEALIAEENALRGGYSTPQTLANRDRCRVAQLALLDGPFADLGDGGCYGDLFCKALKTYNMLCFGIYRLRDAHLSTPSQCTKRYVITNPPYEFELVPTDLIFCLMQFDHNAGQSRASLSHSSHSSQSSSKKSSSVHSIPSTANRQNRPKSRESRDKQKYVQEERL
T1 sequence (Q12791 1-1239 isoform Q12791-7): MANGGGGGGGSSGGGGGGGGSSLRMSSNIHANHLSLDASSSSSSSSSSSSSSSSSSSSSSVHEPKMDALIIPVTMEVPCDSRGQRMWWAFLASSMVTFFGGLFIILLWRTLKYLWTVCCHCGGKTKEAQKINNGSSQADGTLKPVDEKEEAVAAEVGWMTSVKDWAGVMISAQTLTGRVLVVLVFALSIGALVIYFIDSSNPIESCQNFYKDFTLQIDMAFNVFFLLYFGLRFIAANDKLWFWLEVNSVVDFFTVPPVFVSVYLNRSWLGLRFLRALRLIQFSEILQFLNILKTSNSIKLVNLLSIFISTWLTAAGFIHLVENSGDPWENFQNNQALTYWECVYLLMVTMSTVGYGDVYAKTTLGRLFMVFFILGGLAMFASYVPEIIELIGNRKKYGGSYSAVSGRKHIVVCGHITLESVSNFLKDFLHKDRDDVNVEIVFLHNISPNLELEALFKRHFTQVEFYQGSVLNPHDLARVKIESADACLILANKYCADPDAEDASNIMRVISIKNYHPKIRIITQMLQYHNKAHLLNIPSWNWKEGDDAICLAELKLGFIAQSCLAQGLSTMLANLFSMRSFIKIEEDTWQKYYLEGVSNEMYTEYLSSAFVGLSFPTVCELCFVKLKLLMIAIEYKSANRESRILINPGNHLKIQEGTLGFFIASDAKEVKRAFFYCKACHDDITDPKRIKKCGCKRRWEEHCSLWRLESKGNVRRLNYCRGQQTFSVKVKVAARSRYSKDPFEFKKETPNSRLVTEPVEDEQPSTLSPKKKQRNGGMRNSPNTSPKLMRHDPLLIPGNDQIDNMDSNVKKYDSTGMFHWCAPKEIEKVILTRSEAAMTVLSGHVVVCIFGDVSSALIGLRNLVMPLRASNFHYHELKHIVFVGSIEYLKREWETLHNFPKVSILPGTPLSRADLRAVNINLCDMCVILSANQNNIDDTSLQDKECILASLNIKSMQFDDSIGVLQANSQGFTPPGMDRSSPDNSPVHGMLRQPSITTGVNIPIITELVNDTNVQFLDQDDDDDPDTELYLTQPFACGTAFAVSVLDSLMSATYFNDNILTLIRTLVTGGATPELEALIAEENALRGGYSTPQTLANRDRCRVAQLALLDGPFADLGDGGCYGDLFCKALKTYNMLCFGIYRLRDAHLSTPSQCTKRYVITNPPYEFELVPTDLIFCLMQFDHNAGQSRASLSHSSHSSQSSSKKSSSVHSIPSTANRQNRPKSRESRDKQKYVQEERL

Q: For charybdotoxin [ChTX], which “Effect on mitogenic stimulation” value (Kca) is on record?
A: inhibited the stimulatory effect of the mitogen

Q: What about the IC50 (Kca current) of the same compound?
A: 0.019 µM

Q: With `COc1ccc2cc1Oc1ccc(cc1)C[C@H]1c3cc(c(OC)cc3CCN1C)Oc1c(OC)c(OC)cc3c1[C@H](C2)N(C)CC3` [tetrandrine] as the compound, how does the inhibition at 3 µM (gBK) read?
A: 63%

Q: What about the inhibition at 3 µM (hbr5) of the same compound?
A: 14%

Q: With “iberiotoxin (IbTX) (from UniProt P24663 1-37) (peptide)” as the compound, how does the inhibition of total outward currents in gBK injected oocytes by 100 nM IbTX [1] read?
A: > 60%

Q: For `CC[N+](CC)(CC)CC` [TEA], which IC50 (Kca current) is on record?
A: 1800 µM
